These results are taken from US20090068243A1, “Novel formulations for delivery of antiviral peptide therapeutics” (priority 2007, published 2009).

Data set [1] in a line: Stability in aqueous solution (PBS), peptide remaining in solution by HPLC. It is filed as physicochemical. The conditions noted are these: 10 mg/ml in PBS, about pH 7.3 to 7.5, 37° C., time point of 1 week.
For a further data set, the system named is IIIB. The following applies: starting virus isolate IIIB. From the text:
(§1) Assessment of biological properties included measurement of antiviral activity against HIV-1 strains. […] These assays score for reduction of infectious virus titer employing the indicator cell lines MAGI or the CCR5 expressing derivative cMAGI. Both cell lines exploit the ability of HIV-1 tat to transactivate the expression of a β-galactosidase reporter gene driven by the HIV-LTR. The β-gal reporter has been modified to localize in the nucleus and can be detected with the X-gal substrate as intense nuclear staining within a few days of infection. The number of stained nuclei can thus be interpreted as equal to the number of infectious virions in the challenge inoculum if there is only one round of infection prior to staining. […] In the MAGI and cMAGI assays, a 50% reduction in infectious titer (Vn/Vo=0.5) is significant, and provides the primary cutoff value for assessing antiviral activity (“IC50” is defined as the concentration of active ingredient resulting in a 50% reduction in infectious virus titer). […] The peptide (in the respective dilution) was added to the cMAGI or MAGI cells, followed by the virus inocula; and 24 hours later, an inhibitor of infection and cell-cell fusion (e.g., SEQ ID NO:2 (enfuvirtide)) was added to prevent secondary rounds of HIV infection and cell-cell virus spread. The cells were cultured for 2 more days, and then fixed and stained with the X-gal substrate to detect HIV-infected cells. The number of infected cells for each control and peptide dilution was determined with the CCD-imager, and then the IC50 was calculated (expressed in μg/ml).
(§2) In particular, in vitro resistance comparison studies were performed between the novel SEQ ID NO:9 compound of interest and established antiviral agent SEQ ID NO:2, described in detail as follows: MT2 cells were infected with virus isolates (IIIB, 030, 060 and 098) and cultured in increasing concentrations of SEQ ID NO:2 (enfuvirtide) or SEQ ID NO:9 to select for resistance. The initial peptide concentration was approximately 2 times the IC50 of each peptide against the corresponding wild type isolate. Peptide concentrations were maintained by adding fresh peptide every 1-3 days. Cultures were monitored for cytopathic effect (CPE) using standard techniques and when maximal CPE was achieved, a small aliquot of virus was used for subsequent rounds of infection. Peptide concentrations were increased 2 to 4-fold depending on the length of time in culture when compared to the growth rate of wild type virus. During the course of selection, peptide-free virus stocks were also collected. Peptide-free virus stocks were characterized for gp41 genotypic changes by dideoxy sequencing chemistries and phenotypic susceptibility was determined using a cMAGI infectivity assay.

A further data set concerns 584.000098.
Source text: as §1, §2

In data set [2] the test system is virus isolates (IIIB, 030, 060 and 098).
Source text: as §1, §2

In a further data set the test system is 584.000060.
Source text: as §1, §2

For another data set, the system named is 584.000030.
Source text: as §1, §2

The nature of data set [3]: Thermal stability (Tm) by CD signal at 222 nm. It is filed as physicochemical. The following applies: CD at 222 nm, maximum of first derivative of thermal transition. The method, then: (§3) Assessment of biophysical parameters included measurement of helicity and thermal stability. Helicity was assessed by circular dichroism (“CD”) as follows. Briefly, CD spectra were obtained using a spectrometer equipped with a thermoelectric temperature controller. The spectra was obtained at 25° C. with 0.5 nanometer (nm) steps from 200 to 260 nm, with a 1.5 nm bandwith, and a typical averaging time of 4 seconds/step. After the cell/buffer blank was subtracted, spectra were smoothed using a third-order least-squares polynomial fit with a conservative window size to give random residuals. Raw ellipticity values were converted to mean residue ellipticity using standard methods, and plotted was the wavelength (from 200 to 260 nm) versus [θ]×10−3 (degrees cm^2/dmol). Percent helicity values were then calculated using standard methods (usually expressed as percent helicity at 10 μM, 25° C.). Assessment of thermal stability was performed by monitoring the change in CD signal at 222 nm as temperature was raised in 2° C. steps, with 1 minute equilibration times. The stability for each sample (e.g., HIV fusion inhibitor peptide), as represented by the Tm value, is the temperature corresponding to the maximum value of the first derivative of the thermal transition.

The nature of data set [4]: Helicity by circular dichroism (CD). The conditions noted are these: usually percent helicity at 10 μM, 25° C. It is filed as physicochemical. The method, then:
as §3

With “Ac-TTWEAWDRAIAEYAARIEALLRALQEQQEKNEAALREL-NH2 [SEQ ID NO:9, TTWEAWDRAIAEYAARIEALLRALQEQQEKNEAALREL]”, the “peptide remaining detectable in solution” value in data set [1] is on record as no less than 90%. Further, the “Fold Change in IC50” value was 231 in the data set on IIIB; 14 with 584.000098 (starting virus isolate 584.000098); 24 in data set [2] (Geometric Mean of four isolates); 26 in the data set with 584.000060 (starting virus isolate 584.000060); 4 in the data set with 584.000030 (starting virus isolate 584.000030). The “Ending IC50” value came to 2.768 µg/mL in the data set with IIIB (after selection); 0.521 µg/mL in the data set with 584.000098 (starting virus isolate 584.000098, after selection); 0.429 µg/mL in data set [2] (Geometric Mean of four isolates, after selection); 0.208 µg/mL with 584.000060 (starting virus isolate 584.000060, after selection); 0.113 µg/mL in the data set on 584.000030 (starting virus isolate 584.000030, after selection). Besides, the “Starting IC50” value in the data set on IIIB (before selection) is 0.012 µg/mL; in the data set on 584.000098 (starting virus isolate 584.000098, before selection), 0.037 µg/mL; in data set [2] (Geometric Mean of four isolates, before selection), 0.018 µg/mL; with 584.000060 (starting virus isolate 584.000060, before selection), 0.008 µg/mL; in the data set with 584.000030 (starting virus isolate 584.000030, before selection) it was 0.028 µg/mL. Further, in data set [2] (compared to SEQ ID NO:2), the “barrier to development of resistance in vitro, in words” value is given as “higher barrier to development of resistance in vitro”. The “Tm (° C.)” value in data set [3] turned out to be 62 °C. Also, the “Helicity (%)” value in data set [4] came out at 61%.
